In patent US20230416676A1, “Method for Reprogramming Cell” (Celpaten Consulting Partnership (Limited Partnership), priority 2020, published 2023):

test system: Wnt1-tdTomato- MEFs; experiment: Conversion of MEFs into ciNCCs with M6 medium (Wnt1-tdTomato lineage tracing); format: cell-based, mouse; conditions: added to Chir99021, SB431542 and forskolin (FIG. 8C)
Method: The basal medium contained knockout DMEM (Gibco), 10% KSR (Gibco), 10% FBS (Gibco), 1% NEAA (Gibco), and 0.1 mM 2-mercaptoethanol (Gibco) supplemented with the small molecules CHIR99021 (3 μM), SB431542 (5 μM), Forskolin (10 μM), VPA ([…]), EPZ004777 (5 μM), and 5-Aza-dC (0.5 μM). The medium was shaken for 30 min to ensure that all components were fully dissolved.
The MEFs were plated at 5×10^4 cells per well on six-well tissue culture plates in fibroblast medium. The culture plates were precoated with fibronectin or laminin for more than 2 hours. After overnight culture, the medium was exchanged with M6 chemical medium, which was refreshed every 2 days. NCC-like cells appeared and increased at days 3 to 5. After 7 to 10 days of induction, FACS was performed to collect Wnt1^+ cells.
For corneal endothelium is derived from NCCs, a two-step method for reprogramming mouse fibroblasts into CEC-like cells using small molecules was designed, in which the first step was to guide mouse embryonic fibroblasts (MEFs) to be chemically reprogrammed into ciNCCs. To identify small molecules with the potential to convert fibroblasts into ciNCCs, we used a lineage tracing strategy to trace the conversion process and excluded any NCCs or progenitor cells from the starting MEFs (FIGS. 8A and 15A). Wnt1-Cre transgenic mice have been validated as a lineage-tracing reporter model for NCC development. In Wnt1-Cre/ROSA26tdTomato mice, tdTomato protein was faithfully expressed in NCCs. MEFs were thus isolated from Wnt1-Cre/ROSA26tdTomato mice at embryonic day 13.5 (E13.5). Because the NCC population was marked with tdTomato, we performed fluorescence-activated cell sorting (FACS) to collect the tdTomato^− population to exclude any NCCs or progenitors (the purified cells are hereinafter referred to as Wnt1-tdTomato-MEFs; FIG. 15B). We confirmed that the Wnt1-tdTomato^− MEFs were also negative for other NCC markers, including Sox10, P75, Pax3, HNK1, and AP2α (FIGS. 15C and 15D). Further, these Wnt1-tdTomato^− MEFs were negative for typical NSC markers, including Sox2, Pax6 and Nestin (data not shown). […]

| SMILES | effect of individual chemical on induction of Wnt1-tdTomato+ cells |
| --- | --- |
| CCCC(CCC)C(=O)O [VPA, Valproic acid] | further promoted induction of Wnt1-tdTomato^+ cells |
| Nc1ncn([C@H]2C[C@H](O)[C@@H](CO)O2)c(=O)n1 [5-Aza-dC] | further promoted induction of Wnt1-tdTomato^+ cells |
| CC(C)N(CCCNC(=O)Nc1ccc(C(C)(C)C)cc1)C[C@H]1O[C@@H](n2ccc3c(N)ncnc32)[C@H](O)[C@@H]1O [EPZ004777] | further promoted induction of Wnt1-tdTomato^+ cells |
